# Assay results reported in US20030032636A1, “Combination of a serotonin reuptake inhibitor and a 5-HT2C antagonist, inverse agonist or partial agonist” (H. Lundbeck A/S, priority 1999, published 2003).
# Experiments:
# 5-HT2C receptor = biological target: T1, 5-HT2C receptor (Rattus norvegicus, UniProt P08909); test: 5-HT2C binding (3H-Mesulergine, SR-3T3 cells); settings: 0.5 nM 3H-Mesulergine
# T1 construct: host or cells: SR-3T3 cells
# T1 sequence (P08909 33-460): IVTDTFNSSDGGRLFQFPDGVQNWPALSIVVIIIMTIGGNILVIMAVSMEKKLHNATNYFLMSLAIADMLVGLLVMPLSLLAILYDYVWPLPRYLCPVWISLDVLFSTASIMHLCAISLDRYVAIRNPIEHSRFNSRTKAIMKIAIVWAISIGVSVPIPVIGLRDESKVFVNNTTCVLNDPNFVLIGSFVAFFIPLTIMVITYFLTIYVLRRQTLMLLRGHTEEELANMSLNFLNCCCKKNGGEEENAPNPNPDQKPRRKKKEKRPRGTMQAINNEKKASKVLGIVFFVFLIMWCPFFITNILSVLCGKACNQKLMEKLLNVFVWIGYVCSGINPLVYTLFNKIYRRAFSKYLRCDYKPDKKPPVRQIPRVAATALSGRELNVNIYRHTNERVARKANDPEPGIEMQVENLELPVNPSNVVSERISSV
# Method: The cell suspension is centrifuged and the pellet resuspended in 50 mM Tris, HCl, pH 7.7 and stored at −80° C. For experimental use, the frozen cell pellet is thawed and homogenised with an Ultra Turrax for 10-15 seconds. 1.5 mg cell preparation is incubated with 0.5 nM 3H-Mesulergine for 60 minutes at 37° C. Incubation is terminated by rapid filtration through Filtermat B filters and bound radioactivity is determined in a Tricarb scintillation counter.
# [1] = tested on: 5-HT levels in rat ventral hippocampus; test: Microdialysis, ventral hippocampus 5-HT levels; format: in vivo; settings: for enhancement of the effect of citalopram on ventral hippocampal 5-HT levels: 1 μmol/kg simultaneous with 10 μmol/kg citalopram; for serotonin levels as measured in microdialysis experiments: administered alone (summary statement); for effect on rat ventral hippocampal 5-HT levels: 1 μmol/kg subcutaneous; for level of extracellular serotonin: in combination with SSRIs (summary statement)
# Excerpt: Male albino rats of a Wistar-derived strain (285-320 g; Harlan, Zeist, The Netherlands) were used for the experiments. The rats were housed in plastic cages (35×35×40 cm), and had free access to food and water. The experiments are concordant with the declarations of Helsinki and were approved by the Animal Care Committee of the Faculty of Mathematics and Natural Science of the University of Groningen.
# The following drugs were used: Citalopram hydrobromide and internal standard (kindly donated by Lundbeck (Copenhagen, Denmark), courtesy Dr. Sanchez), ritanserin and ketanserin tartrate (RBI, Natick, USA). […] All drugs were administered in a volume of 1 mL per kg.
# Microdialysis experiments were performed using home made I-shaped probes, made of polyacrylonitrile I sodium methyl sulphonate copolymer dialysis fiber (i.d. 220 μm, o.d. […], AN 69, Hospal, Italy). The exposed length of the membranes was 4 mm. […] Lidocaine-HCl, 10% (m/v) was used for local anaesthesia. Rats were placed in a stereotaxic frame (Kopf, USA), and probes were inserted into the ventral hippocampus (coordinates: IA: +3.7 mm, lateral: +4.8 mm, ventral: −8.0 mm from the dura mater, Paxinos and Watson, 1982) and secured with dental cement.
# Probes were perfused with artificial CSF containing 147 mM NaCl, 3.0 mM KCl, 1.2 mM CaCl2, and 1.2 mM MgCl2, at a flow-rate of 1.5 μL/min (Harvard apparatus, South Natick, Ma., USA). Samples were collected on-line in a 20 μL loop and injected automatically onto the column every 15 min.
# Serotonin analysis: 5-HT was analysed using HPLC with electrochemical detection. The HPLC pump (Shimadzu LC-10 AD liquid chromatograph) was connected to a reversed phase column (phenomenex hypersil 3: 3 μm, 100×2.0 mm, C18, Bester, Amstelveen, the Netherlands) followed by an electrochemical detector (Antec Leyden, Leiden, the Netherlands), working at a potential setting of 500 mV vs. Ag/AgCl reference. The mobile phase consisted of 5 g/L di-ammoniumsulfate, 500 mg/L ethylene diamino tetra acetic acid (EDTA), 50 mg/L heptane sulphonic acid and 30 μl/L of triethylamine, at a pH of 4.65 and 4.5% (w/w) methanol and water. Flow-rate of the mobile phase was 0.4 ml/min. The detection limit was 0.5 fmol 5-HT per 20 μL sample (signal to noise ratio 3).
# Level of significance level was set at p<0. 05.
# 5-HT2C receptors = settings: cited from earlier work
# [2] = tested on: levels of DA, NE and 5-HT in rat frontal cortex; settings: cited from earlier work
# [3] = tested on: NE release in rat hippocampus; settings: cited from earlier work
# [4] = tested on: mouse forced swimming test; settings: prior administration; ritanserin 4 mg/kg i.p., ketanserin 8 mg/kg i.p.; cited from earlier work
# [5] = combined with fluoxetine; cited from earlier work
# in vivo = settings: rat, sc
# Excerpt: In the pharmacokinetic experiments, blood was drawn through a canula made of silicon tubing, which was inserted into the right jugular vein for 3.8 cm. The tubing was transferred subcutaneously to the scull of the rat, and a stainless steel inlet was connected to the tubing. The inlet was mounted on the skull with dental cement and surgical screws. After insertion, canulas were filled with a PVP solution (55% polyvinylpyrrolidon in 500 IE/mL heparin) in saline to prevent blood clotting.
# Pharmacokinetic experiments: Rats were allowed to recover for at least 24 h. […]
# Citalopram analysis: Citalopram was measured according to Øyehaug et al. (1982), with minor modifications. […]
# With the experiments in which 5 mL plasma was obtained via the vacutainer, a similar protocol was used, but the plasma sample was now extracted three times with 10 mL of ether. An HPLC/auto-injector (1084B Liquid Chromatograph, Hewlett-Packard) was used, in combination with a fluorescence detector (470 Scanning Fluorescence detector, Waters, England) operating at an absorption wavelength of 240 nm, an emission wavelength of 296 nm, and a slit-width of 12 nm. […]
# Ketanserin analysis: Ketanserin was measured using liquid-liquid extraction, followed by reversed phase chromatography in conjunction with fluorescence detection. […]
# [6] = tested on: morphine-induced DA release in rat nucleus accumbens; settings: cited from earlier work
# [7] = tested on: prefrontal cortex 5-HT levels; test: Microdialysis, prefrontal cortex 5-HT levels; format: in vivo, rat
structure (smiles),measurement,setting,value
"Cc1ccc2c(c1)c(-c1ccc(F)cc1)c(C)n2C1CCN(CCN2CCNC2=O)CC1 [Lu 29066, 2,5-dimethyl-3-(4-fluorophenyl)-1-[1-[2-(imidazolidin-2-on-1-yl)ethyl]-piperidin-4-yl]-1H-indole]",Ki,5-HT2C receptor,6.9 nM
same,enhancement of the effect of citalopram on ventral hippocampal 5-HT levels,[1],significant enhancement of the effect of citalopram
same,serotonin levels as measured in microdialysis experiments,[1],no increase
same,effect on rat ventral hippocampal 5-HT levels,[1]; alone,had no effect
same,level of extracellular serotonin,[1],synergistically act to increase
Fc1ccc([C@@H]2CCNC[C@H]2COc2ccc3c(c2)OCO3)cc1 [paroxetine],effect of chronic administration on 5-HT2C receptors,5-HT2C receptors,functional desensitisation
Cc1cc2c(cc1Cl)N(C(=O)Nc1ccc(Oc3cccnc3C)nc1)CC2 [SB-242084],levels of both DA and NE,[2],increased
same,levels of serotonin (5-HT),[2],without modifying
Cc1nc2sccn2c(=O)c1CCN1CCC(=C(c2ccc(F)cc2)c2ccc(F)cc2)CC1 [ritanserin],augmentation of the effect of citalopram on ventral hippocampal 5-HT levels,[1]; 10 μmol/kg i.p. given 60 minutes prior to 10 μmol/kg s.c. citalopram,augmented the effect of citalopram significantly
same,effect on 5-HT levels in rat ventral hippocampus,"[1]; alone, 10 μmol/kg intraperitoneal",did not have any effect
same,level of extracellular serotonin,[1],synergistically act to increase
same,quipazine-induced decrease of NE release,[3],antagonised
same,potentiation of the effects of imipramine and desipramine (16 mg/kg i.p.),[4],potentiated
COc1cc(OC)c(C(=O)CCCCN2CCC3(CC2)NC(=O)NC3=O)cc1NS(=O)(=O)c1ccc(C(F)(F)F)cc1 [RS 102221],Ki,5-HT2C receptor,0.56 nM
same,enhancement of the effect of citalopram on ventral hippocampal 5-HT levels,[1],significant enhancement of the effect of citalopram
same,serotonin levels as measured in microdialysis experiments,[1],no increase
same,effect on rat ventral hippocampal 5-HT levels,[1]; alone,had no effect
same,level of extracellular serotonin,[1],synergistically act to increase
O=C1NCCN1CCN1CCN([C@@H]2C[C@@H](c3ccc(F)cc3)c3ccccc32)CC1 [irindalone],Ki,5-HT2C receptor,19 nM
C[C@H](N)Cn1ccc2cc(F)c(Cl)cc21 [Ro 60-0175],levels of both DA and NE,[2],suppressed
same,levels of serotonin (5-HT),[2],without modifying
CN1CCN2c3ccccc3Cc3ccccc3C2C1 (centres unmarked) [mianserin],efficacy of fluoxetine in the treatment of treatment resistant patients,[5],augment the efficacy of fluoxetine
same,latency of onset of antidepressive effect,[5],may shorten the latency of onset
CN(C)CCCC1(c2ccc(F)cc2)OCc2cc(C#N)ccc21 (centres unmarked) [citalopram],half-life,in vivo; 10 umol/kg,~2 h
Clc1cncc(N2CCNCC2)n1 [MK-212],morphine-induced DA release,[6],inhibited
CCc1nn(CCCN2CCN(c3cccc(Cl)c3)CC2)c(=O)n1CCOc1ccccc1 [nefazodone],Ki,5-HT2C receptor,33 nM
O=C(c1ccc(F)cc1)C1CCN(CCn2c(=O)[nH]c3ccccc3c2=O)CC1 [ketanserin],Ki,5-HT2C receptor,14 nM
same,augmentation of the effect of citalopram on ventral hippocampal 5-HT levels,[1]; 1 nmol/kg co-administered with 10 μmol/kg citalopram,did not augment the effect of citalopram
same,augmentation of the effect of citalopram on ventral hippocampal 5-HT levels,[1]; 10 nmol/kg co-administered with 10 μmol/kg citalopram,significantly enhanced the effect of citalopram
same,augmentation of the effect of citalopram on ventral hippocampal 5-HT levels,[1]; 100 nmol/kg co-administered with 10 μmol/kg citalopram,significantly enhanced the effect of citalopram
same,enhancement of the effect of fluoxetine on ventral hippocampal 5-HT levels,[1]; 100 nmol/kg simultaneous with 5 mg/kg fluoxetine,significant enhancement of the effect of fluoxetine
same,serotonin levels as measured in microdialysis experiments,[1],no increase
same,effect on ventral hippocampal 5-HT levels,"[1]; alone, 100 nmol/kg subcutaneous",had no effect
same,"augmentation of the SSRI induced increase in 5-HT levels, ventral hippocampus","[1]; different doses, simultaneous with 10 μmol/kg citalopram",dose dependent augmentation
same,level of extracellular serotonin,[1],synergistically act to increase
same,augmentation of the citalopram induced increase in cortical 5-HT levels,[7]; 1 nmol/kg co-administered with citalopram,did not augment
same,augmentation of the citalopram induced increase in cortical 5-HT levels,"[7]; 10 nmol/kg co-administered with citalopram, effect did not reach significance",transiently enhanced the effect of citalopram
same,augmentation of the citalopram induced increase in cortical 5-HT levels,[7]; 100 nmol/kg simultaneous with citalopram,significant enhancement of the effect of citalopram
same,effect on prefrontal cortex 5-HT levels,"[7]; alone, dose not stated",did not show any effect
same,potentiation of the effects of imipramine and desipramine (16 mg/kg i.p.),[4],potentiated
same,half-life,in vivo; 100 nmol/kg,~1.5 h
